The source of these data is ChEMBL document CHEMBL5724914, “Linking interpersonal differences in gut microbiota composition and drug biotransformation activity” (2024).

The nature of data set [1]: The drug is tested on Z-007 corresponding to rat gut metagenome with ENA study accession number: PRJEB37062 and ENA sample accession number: ERS12561807 for biotransformation under anaerobic condition. The drug concentrations were measured over 9 timepoints collected between 0 and 24 hours of incubation by liquid-chromatography-coupled mass spectrometry (LC–MS). The conditions noted are these: 2 µM.

For data set [2] the following is noted: human gut metagenome, 24 h, 2 µM.
Data set [3] in a line: The drug is tested on WLS-006 corresponding to human gut metagenome with ENA study accession number: PRJEB37062 and ENA sample accession number: ERS12561741 for biotransformation under anaerobic condition. The drug concentrations were measured over 9 timepoints collected between 0 and 24 hours of incubation by liquid-chromatography-coupled mass spectrometry (LC–MS). The conditions noted are these: 2 µM.

Data set [4] is described as follows: The drug is tested on Z-028 corresponding to mouse gut metagenome with ENA study accession number: PRJEB37062 and ENA sample accession number: ERS12561827 for biotransformation under anaerobic condition. The drug concentrations were measured over 9 timepoints collected between 0 and 24 hours of incubation by liquid-chromatography-coupled mass spectrometry (LC–MS). The conditions noted are these: 2 µM.

The conditions of data set [5]: human gut metagenome, 24 h, 2 µM. The source holds these as a separate data set.
The conditions of data set [6]: human gut metagenome, 24 h, 2 µM. This is another data set of the same source.
The conditions of data set [7]: human gut metagenome, 24 h, 2 µM. This is another data set of the same source.
Data set [8] in a line: The drug is tested on Z-030 corresponding to mouse gut metagenome with ENA study accession number: PRJEB37062 and ENA sample accession number: ERS12561829 for biotransformation under anaerobic condition. The drug concentrations were measured over 9 timepoints collected between 0 and 24 hours of incubation by liquid-chromatography-coupled mass spectrometry (LC–MS). The conditions noted are these: 2 µM.

Data set [9] in a line: The drug is tested on WLS-039 corresponding to human gut metagenome with ENA study accession number: PRJEB37062 and ENA sample accession number: ERS12561746 for biotransformation under anaerobic condition. The drug concentrations were measured over 9 timepoints collected between 0 and 24 hours of incubation by liquid-chromatography-coupled mass spectrometry (LC–MS). The conditions noted are these: 2 µM.

For data set [10] the following is noted: human gut metagenome, 24 h, 2 µM. This is another data set of the same source.
Data set [11] in a line: The drug is tested on Z-026 corresponding to metagenome with ENA study accession number: PRJEB37062 and ENA sample accession number: ERS12561825 for biotransformation under anaerobic condition. The drug concentrations were measured over 9 timepoints collected between 0 and 24 hours of incubation by liquid-chromatography-coupled mass spectrometry (LC–MS). The conditions noted are these: 2 µM.

Data set [12] can be described thus: The drug is tested on Z-017 corresponding to mouse gut metagenome with ENA study accession number: PRJEB37062 and ENA sample accession number: ERS12561816 for biotransformation under anaerobic condition. The drug concentrations were measured over 9 timepoints collected between 0 and 24 hours of incubation by liquid-chromatography-coupled mass spectrometry (LC–MS). The conditions noted are these: 2 µM.

For data set [13] the following is noted: human gut metagenome, 24 h, 2 µM. The source holds these as a separate data set.
The conditions of data set [14]: human gut metagenome, 24 h, 2 µM. This is another data set of the same source.
The nature of data set [15]: The drug is tested on WLS-240 corresponding to human gut metagenome with ENA study accession number: PRJEB37062 and ENA sample accession number: ERS12561773 for biotransformation under anaerobic condition. The drug concentrations were measured over 9 timepoints collected between 0 and 24 hours of incubation by liquid-chromatography-coupled mass spectrometry (LC–MS). The conditions noted are these: 2 µM.

Data set [16] in a line: The drug is tested on Z-004 corresponding to metagenome with ENA study accession number: PRJEB37062 and ENA sample accession number: ERS12561804 for biotransformation under anaerobic condition. The drug concentrations were measured over 9 timepoints collected between 0 and 24 hours of incubation by liquid-chromatography-coupled mass spectrometry (LC–MS). The conditions noted are these: 2 µM.

For data set [17] the following is noted: human gut metagenome, 24 h, 2 µM. This is another data set of the same source.
For data set [18] the following is noted: human gut metagenome, 24 h, 2 µM. The source holds these as a separate data set.
Data set [19] in a line: The drug is tested on Z-005 corresponding to metagenome with ENA study accession number: PRJEB37062 and ENA sample accession number: ERS12561805 for biotransformation under anaerobic condition. The drug concentrations were measured over 9 timepoints collected between 0 and 24 hours of incubation by liquid-chromatography-coupled mass spectrometry (LC–MS). The conditions noted are these: 2 µM.

Data set [20] is described as follows: The drug is tested on Z-009 corresponding to pig gut metagenome with ENA study accession number: PRJEB37062 and ENA sample accession number: ERS12561809 for biotransformation under anaerobic condition. The drug concentrations were measured over 9 timepoints collected between 0 and 24 hours of incubation by liquid-chromatography-coupled mass spectrometry (LC–MS). The conditions noted are these: 2 µM.
Also: call rule not given here.

With `O=C(O)CCC(=O)O.O=C(O[C@H]1CN2CCC1CC2)N1CCc2ccccc2[C@@H]1c1ccccc1` [SOLIFENACIN SUCCINATE], the “Bacterial Biotransformation” value is “Compound NOT metabolized” in data set [1]; “Compound NOT metabolized” in data set [2]; “Compound metabolized” in [3]; “Compound NOT metabolized” in data set [4]; “Compound NOT metabolized” in data set [5]; “Compound NOT metabolized” in [6]. For the same molecule, the “Bacterial Biotransformation” value is “Compound metabolized” in data set [7]; “Compound NOT metabolized” in [8]; “Compound metabolized” in data set [9]; “Compound NOT metabolized” in data set [10]; “Compound NOT metabolized” in data set [11]; “Compound NOT metabolized” in data set [12]. Also, the “Bacterial Biotransformation” value is reported as “Compound NOT metabolized” in data set [13]; “Compound metabolized” in [14]; “Compound metabolized” in data set [15]; “Compound metabolized” in data set [16]; “Compound NOT metabolized” in [17]; “Compound NOT metabolized” in data set [18]. Besides, the “Bacterial Biotransformation” value in [19] and in [20] was “Compound metabolized” each time.
`COc1cc2nc(N3CCN(C(=O)C4CCCO4)CC3)nc(N)c2cc1OC` (stereo not given) [TERAZOSIN]: the “Bacterial Biotransformation” value in data set [1] is reported as “Compound NOT metabolized”; in data set [2], “Compound metabolized”; in data set [3] it was “Compound metabolized”; in data set [4] it was “Compound NOT metabolized”; in data set [5], “Compound NOT metabolized”; in data set [6] it was “Compound NOT metabolized”. Also, the “Bacterial Biotransformation” value in [7], in data set [8], in data set [9], in data set [10], in [11] and in data set [12] was “Compound NOT metabolized” in each case. For the same molecule, the “Bacterial Biotransformation” value in data set [13] is recorded as “Compound NOT metabolized”; in data set [14] it was “Compound metabolized”; in [15] it was “Compound metabolized”; in data set [16] it was “Compound NOT metabolized”; in [17], “Compound metabolized”; in data set [18] it was “Compound NOT metabolized”. Also, the “Bacterial Biotransformation” value in data set [19] and in [20] was “Compound metabolized” in each case.
On to `CC(C)[C@H]1CC[C@H](C(=O)N[C@H](Cc2ccccc2)C(=O)O)CC1` [NATEGLINIDE], for which the “Bacterial Biotransformation” value in [1] was “Compound NOT metabolized”; in data set [2], “Compound metabolized”; in data set [3] it was “Compound metabolized”; in [4] it was “Compound NOT metabolized”; in [5], “Compound metabolized”; in [6], “Compound metabolized”. In addition, the “Bacterial Biotransformation” value in data set [7] is listed as “Compound metabolized”; in data set [8], “Compound NOT metabolized”; in data set [9] it was “Compound NOT metabolized”; in data set [10], “Compound metabolized”; in data set [11], “Compound NOT metabolized”; in data set [12], “Compound NOT metabolized”. In addition, the “Bacterial Biotransformation” value in data set [13] was “Compound NOT metabolized”; in data set [14], “Compound metabolized”; in data set [15] it was “Compound metabolized”; in data set [16] it was “Compound NOT metabolized”; in [17], “Compound metabolized”; in data set [18], “Compound metabolized”. Also, the results for the “Bacterial Biotransformation” value in data set [19] and in data set [20] were “Compound NOT metabolized” and “Compound metabolized”, respectively.
With `CCN(C)C(=O)Oc1cccc([C@H](C)N(C)C)c1.O=C(O)C(O)C(O)C(=O)O` [RIVASTIGMINE TARTRATE], the “Bacterial Biotransformation” value in data set [1] was “Compound NOT metabolized”; in data set [2], “Compound NOT metabolized”; in data set [3], “Compound NOT metabolized”; in [4], “Compound NOT metabolized”; in data set [5] it was “Compound metabolized”; in data set [6], “Compound NOT metabolized”. Moreover, the “Bacterial Biotransformation” value in data set [7] is given as “Compound NOT metabolized”; in data set [8], “Compound NOT metabolized”; in [9], “Compound metabolized”; in [10] it was “Compound NOT metabolized”; in [11] it was “Compound NOT metabolized”; in data set [12], “Compound NOT metabolized”. Further, the “Bacterial Biotransformation” value is reported as “Compound NOT metabolized” in data set [13]; “Compound NOT metabolized” in data set [14]; “Compound metabolized” in data set [15]; “Compound NOT metabolized” in [16]; “Compound metabolized” in data set [17]; “Compound NOT metabolized” in data set [18]. Besides, the “Bacterial Biotransformation” value in data set [19] and in data set [20] was “Compound NOT metabolized” in each case.
In the case of `Nc1nc(NC2CC2)c2ncn([C@H]3C=C[C@@H](CO)C3)c2n1.Nc1nc(NC2CC2)c2ncn([C@H]3C=C[C@@H](CO)C3)c2n1.O=S(=O)(O)O` [ABACAVIR SULFATE], the “Bacterial Biotransformation” value was “Compound NOT metabolized” in [1]; “Compound metabolized” in data set [2]; “Compound metabolized” in data set [3]; “Compound NOT metabolized” in data set [4]; “Compound metabolized” in data set [5]; “Compound NOT metabolized” in data set [6]. The “Bacterial Biotransformation” value is given as “Compound metabolized” in [7]; “Compound NOT metabolized” in [8]; “Compound NOT metabolized” in data set [9]; “Compound metabolized” in [10]; “Compound NOT metabolized” in [11]; “Compound NOT metabolized” in data set [12]. Moreover, the “Bacterial Biotransformation” value was “Compound NOT metabolized” in data set [13]; “Compound NOT metabolized” in data set [14]; “Compound metabolized” in [15]; “Compound metabolized” in data set [16]; “Compound metabolized” in data set [17]; “Compound metabolized” in data set [18]. In addition, the “Bacterial Biotransformation” value in data set [19] and in [20] was “Compound NOT metabolized” each time.
